Measurements taken from publication PMC3850926, “Evaluation of the adverse event profile and pharmacodynamics of toceranib phosphate administered to dogs with solid tumors at doses below the maximum tolerated dose” (BMC Veterinary Research, 2013).
“Also recorded” adds a separate entry of the source.

Experiments:
VEGF = assay: Plasma VEGF concentrations (Canine VEGF Quantikine ELISA); assay type: in vivo, dog
Method: A total of 40 dogs were enrolled in this study, with dogs initially assigned to toceranib at 2.5 mg/kg or 2.75 mg/kg EOD. All dogs were placed on famotidine at 0.5-1 mg/kg once per day at study initiation and owners were instructed to administer the toceranib in the morning with food. Physical examination, routine bloodwork (CBC, biochemistry profile) and blood sampling for assessment of toceranib and VEGF plasma concentrations was performed pretreatment and on days 0, 7, 14 and 30 of treatment. […] Owners of dogs that experienced CR, PR, or SD at study day 30 were offered the option of continuing toceranib administration for an additional 6 months (provided at no cost), although patient data was not officially captured beyond day 30.
Blood was collected into EDTA tubes and centrifuged at 3000 × g for 10 minutes. Plasma was then collected and split evenly into two portions in cryovials, then stored at -80°C until analysis was performed for toceranib and VEGF concentrations.
A solid phase sandwich ELISA was used to measure plasma concentrations of VEGF. […] All standards and samples were performed in duplicate and the absorbance reading at […] was subtracted from the absorbance reading at […].
VEGF concentrations were analyzed in terms of percent change from baseline. […]

dogs with solid tumors = assay: Assessment of adverse events (VCOG-CTCAE); assay type: in vivo, dog
Method: All dogs were placed on famotidine at 0.5-1 mg/kg once per day at study initiation and owners were instructed to administer the toceranib in the morning with food. […] Dogs were evaluated for AEs on days 0, 7, 14, and 30 of study, as well as at interim time points as needed. AEs were defined and graded according to the published VCOG-CTCAE criteria. Disease progression or signs and symptoms definitely related to disease were not considered AEs.

[1] = system: AGASACA, thyroid carcinomas, head and neck carcinomas, nasal tumors; set-up: method as in PMID 22236194; conditions: median dose 2.8 mg/kg, cited from earlier work
[2] = system: target receptor tyrosine kinases; set-up: method as in PMID 12538485; conditions: established in rodent studies; cited from earlier work
dogs with MCT = conditions: dog, in vivo, cited from earlier work
[3] = cited from earlier work
[4] = number of AEs, 40 dogs, 2.4-2.9 mg/kg EOD, 30 days

Cc1[nH]c(/C=C2\C(=O)Nc3ccc(F)cc32)c(C)c1C(=O)NCCN1CCCC1 [toceranib, Toceranib phosphate]
change in plasma VEGF concentrations over the 30 day treatment period (VEGF; 8 hours post dosing, days 0, 7, 14, 30, p < 0.001): increase significantly; also recorded: increased over time
association of change in VEGF with Cmax and Tmax (VEGF; linear mixed models): associated with Cmax (p < 0.001), but not Tmax (p = 0.74)
grade 3 or 4 GI adverse events (dogs with solid tumors; 2.4-2.9 mg/kg EOD): no grade 3 or 4 GI adverse events
dogs with increased BUN without concomitant increase in creatinine (dogs with solid tumors; 6 had concurrent gastrointestinal upset): 9 dogs
dogs with grade 1 anemia (dogs with solid tumors; 6 had mild anemia of chronic disease before treatment): Thirteen
clinical evidence of hepatotoxicity (dogs with solid tumors; 40 dogs, 30 days): no dogs
dogs that developed grade 1 anorexia (number) (dogs with solid tumors; 40 dogs, 30 days): Thirteen
dogs that developed grade 1 anorexia (percent) (dogs with solid tumors; 40 dogs, 30 days): 32.5%
dogs that developed grade 1 diarrhea (number) (dogs with solid tumors; 40 dogs, 30 days): Fifteen
dogs that developed grade 1 vomiting (number) (dogs with solid tumors; 40 dogs, 30 days): Eighteen
dogs that developed grade 2 diarrhea (dogs with solid tumors; 40 dogs, 30 days): Six
dogs with grade 1 increases in AST (dogs with solid tumors; 40 dogs, 30 days): Five
dogs with grade 1 thrombocytopenia (dogs with solid tumors; 40 dogs, 30 days): 2 dogs
dogs with grade 2 anorexia (dogs with solid tumors; 40 dogs, 30 days): 1 dogs
dogs with grade 2 colitis (dogs with solid tumors; 40 dogs, 30 days): two
dogs with grade 2 vomiting (dogs with solid tumors; 40 dogs, 30 days): 3 dogs
dogs with grade 3 hypertension (dogs with solid tumors; 40 dogs, 30 days): 2 dogs
dogs with grade 3 lameness (dogs with solid tumors; 40 dogs, 30 days): 1 dogs
dogs with mild-to-moderate lameness (grade 1–2) (dogs with solid tumors; 40 dogs, 30 days): 10 dogs
dogs with more than one episode of grade 1 diarrhea (dogs with solid tumors; 40 dogs, 30 days): 10 dogs
dogs with more than one event of grade 1 vomiting (dogs with solid tumors; 40 dogs, 30 days): 5 dogs
dogs with transient grade 1 elevations in ALT (dogs with solid tumors; 40 dogs, 30 days): 7 dogs
dogs with grade 1 neutropenia (number) (dogs with solid tumors; after 1–3 weeks of therapy): 20/40
share of AEs that were grade 1 or grade 2 (dogs with solid tumors; all AEs of the study): 86%
share of AEs that were grade 2 (dogs with solid tumors; all AEs of the study): 12%
dogs that developed hypertension (any grade) (dogs with solid tumors; blood pressure measured only in animals with signs): 3 dogs
adverse event profile compared to the label dose of 3.25 mg/kg EOD (dogs with solid tumors; dog, in vivo): substantially reduced adverse event profile
dogs with grade 3 AST elevation (dogs with solid tumors; end of study period): 1 dogs
dogs with weight loss (dogs with solid tumors; grade 1 event): 3 dogs
dogs with lethargy (number) (dogs with solid tumors; grade 1 or 2, 40 dogs, 30 days): 13 dogs
dogs with lethargy (percent) (dogs with solid tumors; grade 1 or 2, 40 dogs, 30 days): 32.5%
dogs requiring a dose modification (dogs with solid tumors; initiated at 2.5 mg/kg): five
dogs requiring a dose modification (dogs with solid tumors; initiated at 2.75 mg/kg): three
Alopecia, Grade 1 (dogs with solid tumors; [4]): 1
Anemia, Grade 1 (dogs with solid tumors; [4]): 13
Anorexia, Grade 1 (dogs with solid tumors; [4]): 15
Anorexia, Grade 2 (dogs with solid tumors; [4]): 1
Colitis, Grade 2 (dogs with solid tumors; [4]): 2
Constipation, Grade 1 (dogs with solid tumors; [4]): 1
Cough, Grade 1 (dogs with solid tumors; [4]): 4
Dermatitis, Grade 1 (dogs with solid tumors; [4]): 1
Diarrhea, Grade 1 (dogs with solid tumors; [4]): 34
Diarrhea, Grade 2 (dogs with solid tumors; [4]): 6
Epistaxis, Grade 1 (dogs with solid tumors; [4]): 3
Fever, Grade 2 (dogs with solid tumors; [4]): 1
Hand-foot syndrome, Grade 1 (dogs with solid tumors; [4]): 1
Hypertension, Grade 1 (dogs with solid tumors; [4]): 1
Hypertension, Grade 3 (dogs with solid tumors; [4]): 2
Hypopigmentation, Grade 1 (dogs with solid tumors; [4]): 2
Ileus, Grade 3 (dogs with solid tumors; [4]): 1
Increase ALP, Grade 1 (dogs with solid tumors; [4]): 9
Increase ALP, Grade 2 (dogs with solid tumors; [4]): 2
Increase ALP, Grade 3 (dogs with solid tumors; [4]): 1
Increase ALT, Grade 1 (dogs with solid tumors; [4]): 7
Increase ALT, Grade 3 (dogs with solid tumors; [4]): 1
Increase ALT, Grade 4 (dogs with solid tumors; [4]): 1
Increase AST, Grade 1 (dogs with solid tumors; [4]): 5
Increase AST, Grade 3 (dogs with solid tumors; [4]): 1
Increase BUN, Grade 1 (dogs with solid tumors; [4]): 9
Increase BUN, Grade 2 (dogs with solid tumors; [4]): 1
Increase CK, Grade 1 (dogs with solid tumors; [4]): 2
Lameness, Grade 1 (dogs with solid tumors; [4]): 6
Lameness, Grade 2 (dogs with solid tumors; [4]): 8
Lameness, Grade 3 (dogs with solid tumors; [4]): 1
Lethargy, Grade 1 (dogs with solid tumors; [4]): 15
Lethargy, Grade 2 (dogs with solid tumors; [4]): 2
Neutropenia, Grade 1 (dogs with solid tumors; [4]): 20
Neutropenia, Grade 2 (dogs with solid tumors; [4]): 1
Ocular discharge, Grade 1 (dogs with solid tumors; [4]): 3
Pancreatitis, Grade 3 (dogs with solid tumors; [4]): 1
Panting, Grade 1 (dogs with solid tumors; [4]): 3
Protein losing nephropathy, Grade 1 (dogs with solid tumors; [4]): 4
Pruritus, Grade 1 (dogs with solid tumors; [4]): 1
Thrombocytopenia, Grade 1 (dogs with solid tumors; [4]): 2
Vomiting, Grade 1 (dogs with solid tumors; [4]): 23
Vomiting, Grade 2 (dogs with solid tumors; [4]): 3
Weight loss, Grade 1 (dogs with solid tumors; [4]): 3
all adverse events, Grade 1 (total) (dogs with solid tumors; [4]): 188
all adverse events, Grade 2 (total) (dogs with solid tumors; [4]): 27
all adverse events, Grade 3 (total) (dogs with solid tumors; [4]): 8
all adverse events, Grade 4 (total) (dogs with solid tumors; [4]): 1
lethargy, grade 1 episodes among the affected dogs (dogs with solid tumors; remainder grade 2): 11
dogs with depigmentation and thinning of the footpads in all 4 limbs (dogs with solid tumors; resolved after 1 week discontinuation): One
weight loss, percent of initial recorded body weight (dogs with solid tumors; the 3 affected dogs): 5-10%
dogs with dose changed (drug holiday and/or dose reduction), number (dogs with solid tumors; throughout the study period): 8 dogs
dogs with dose changed (drug holiday and/or dose reduction), percent (dogs with solid tumors; throughout the study period): 20%
patients that developed protein losing nephropathy (PLN) (dogs with solid tumors; without an apparent cause): 4 patients
clinical benefit rate (CR + PR + SD) [1]: exceeding 80%
objective response rates ([1]; varied by tumor type): 25-75%
plasma concentration threshold for receptor (target) inhibition in vivo [2]: 40 ng/mL
dogs with dose changed (drug holiday and/or dose reduction) (dogs with MCT; 3.25 mg/kg): 48.3%
dogs that had a dose reduction due to AEs (dogs with MCT): approximately 20%
dose proportionality of Cmax ([3]; healthy beagle dogs): proportional to doses ranging from 2.0 to 6.0 mg/kg
time of maximum drug concentration (Tmax) ([3]; previous studies): 5.3 to 9.3 h
time of Cmax post drug administration ([3]; prior studies): 6 to 8 h
